According to patent US20020082264A1, “Medicaments for viral diseases” (priority 2000, published 2002):
Where a name gives a salt, the structure may show the parent alone.

Experiments:
hepatitis B virus = assay: antiviral action on hepatitis B virus in HepG2.2.15 cells (HBV DNA dot-blot hybridization); format: cell-based; conditions: 96 h, 2 x 4 days incubation, intra- or extracellular hepatitis B-specific DNA band reduced by 50% vs untreated sample
Description: The antiviral action of the compounds according to the invention on hepatitis B virus was investigated by methods based on those described by M. A. Sells et al., Proc. Natl. Acad. Sci. 84, 1005-1009 (1987) and B. E. Korba et al., Antiviral Research 19, 55-70 (1992).
The antiviral tests were carried out in 96-well microtitre plates. The first vertical row of the plate received only growth medium and HepG2.2.15 cells. It served as virus control.
Stock solutions of the test compounds (50 mM) were initially dissolved in DMSO, and further dilutions were prepared in the HepG2.2.15 growth medium. The compounds according to the invention were usually pipetted in a test concentration of 100 μM (lst test concentration) in each case into the second vertical test row of the microtitre plate and subsequently diluted in twofold steps 2^10 times in growth medium +2% by weight fetal calf serum (volume 25 μl).
Each well of the microtitre plate then contained 225 μl of HepG2.2.15 cell suspension (5×10^4 cells/ml) in growth medium +2% by weight of fetal calf serum. The test mixture was incubated at 37° C. and 5% CO2 (v/v) for 4 days.
The supernatant was then aspirated off and discarded, and the wells received 225 μl of freshly prepared growth medium. The compounds according to the invention were each added anew as 10-fold concentrated solution in a volume of 25 μl. The mixtures were incubated for a further 4 days.
The supematants/cells were then harvested and sucked by means of a vacuum onto 96-well dot-blot chambers covered with a nylon membrane (in accordance with the manufacturer's information).
After the supernatants or lysed cells had been transferred to the nylon membrane of the blot apparatus (see above), the intra- or extracellular supernatants of the HepG2.2.15 cells were denatured (1.5 M NaCl/0.5 N NaOH), neutralized (3 M NaCl/0.5 M Tris HCl, pH 7.5) and washed (2× SSC). The DNA was then baked onto the membrane by incubating the filters at 120° C. for 2-4 hours.
Detection of the viral DNA from the treated HepG2.2.15 cells on the nylon filters was easily carried out with non-radioactive, digoxigenin-labelled hepatitis B-specific DNA probes, each of which was labelled with digoxigenin, purified and employed for the hybridization in accordance with the manufacturer's information.
The prehybridization and hybridization took place in 5× SSC, 1× blocking reagent, 0.1% by weight N-lauroylsarcosine, 0.02% by weight SDS and 100 μg of herring sperm DNA. The prehybridization took place at 60° C. for 30minutes, and the specific hybridization with 20 to 40 ng/ml of the digoxigenized, denatured HBV-specific DNA took place at 60° C. for 14 hours. The filters were then washed.
The immunological detection of the digoxigenin-labelled DNA took place in accordance with the manufacturer's information:
The filters were washed and prehybridized in a blocking reagent (in accordance with the manufacturer's information). Hybridization was then carried out with an anti-DIG antibody coupled to alkaline phosphatase for 30 minutes. After a washing step, the substrate of alkaline phosphatase, CSPD, was added, incubated with the filters for 5 minutes, then packed in plastic film and incubated at 37° C. for a further 15 minutes. The chemiluminescence of the hepatitis B-specific DNA signals was visualized by exposing the filters to an X-ray film (incubation depending on signal strength: 10 minutes to 2 hours).
The half-maximum inhibitory concentration (IC50, 50% inhibitory concentration) was determined as the concentration at which the intra- or extracellular hepatitis B-specific band was reduced by the compound according to the invention by 50% compared with an untreated sample.

Row | melting point [°C] | Structure (SMILES) | IC50 (hepatitis B virus) [nM]
1 | – | N#CCCC1C(=O)c2ccc(-c3cccc(N)c3)cc2OC12CCCCC2 (stereo not drawn) [Example 132, 3-(2-Cyanoethyl)-7-(3-aminophenyl)spiro[2H-1-benzopyran-2,1′-cyclohexan]-4(3H)-one Hydrochloride] | 2 to 120
2 | 196 | O=C(O)CCC1C(=O)c2ccc(-c3ccccc3)cc2OC12CCCCC2 (stereo not drawn) | –
3 | – | N#CCCC1C(=O)c2ccc(-c3ccc(F)c(F)c3)cc2OC12CCC2 (stereo not drawn) [Example 99] | 2 to 120
4 | 61 to 63 | N#CCCC1C(=O)c2ccc(-c3ccc(F)cc3)cc2OC12CCCCC2 (stereo not drawn) | –
5 | 190 to 195 | N#CCCC1(CCC#N)C(=O)c2ccc(-c3cccnc3)cc2OC12CCCCC2 | –
6 | 145 to 149 | N#CCCC1(CCC#N)C(=O)c2ccc(Br)cc2OC12CCCCC2 | –
7 | 80 | N#CCCC1C(=O)c2cc(F)c(F)cc2OC12CCCCC2 (stereo not drawn) | –
8 | – | N#CCCC1C(=O)c2ccc(-c3cccc([N+](=O)[O-])c3)cc2OC12CCCC2 (stereo not drawn) [Example 116] | 2 to 120
9 | – | N#CCCC1C(=O)c2ccc(-c3ccc(F)c(F)c3)cc2OC12CCCC2 (stereo not drawn) [Example 82] | 2 to 120
10 | – | N#CCCC1C(=O)c2ccc(-c3cccc(C#N)c3)cc2OC12CCCC2 (stereo not drawn) [Example 97] | 2 to 120

Row | Structure (SMILES) | melting point [°C] | IC50 (hepatitis B virus) [nM]
11 | Cc1cccc(-c2ccc3c(c2)OC2(CCCCC2)C(CCC#N)C3=O)c1 (stereo not drawn) [Example 76] | 86 to 90 | 2 to 120
